The test system of experiment [1] is hMSCs. Description: Loss of stemness: STRO-1 immunostaining of hMSCs cultured with compounds in solution. The experiment is classed as cell-based, Human. The settings on record: compound in cell culture media solution; for STRO-1 Expression (%) after 96 h: 400 ng/mL added every 24 h; for STRO-1 Expression (%) after 48 h: 400 ng/mL. The text has this:
The following starting materials and reagents were used: • Apatite ceramics (also called apatite or ceramic in the present invention) were synthetized as described in Mater Res. 2004; 7(4): 625-630. • Titanium was obtained from Goodfellow®. • Hydrogel (poly(acrylamide-co-acrylic acid) gel) was synthetized as described in Langmuir 2011; 27(22):13635-42. • PEEK was obtained from Goodfellow®. • PET (Poly(ethylene terephthtalate) was obtained from Goodfellow@. • Type-I collagen sponge was obtained from Sigma®. • Hexane was obtained from Sigma®. • 3-succinimidyl-3-maleimidopropionate (SMP) was obtained from Sigma®. • DMF was obtained from Sigma®. • PBS 1× was obtained from Gibco®. • 3-(ethoxydimethylsilyl)propylamine was obtained from Sigma®. • Ammonium persulfate was obtained from Biorad®. • N,N,N′,N′-tetramethylethylenediamine was obtained from Aldrich®. • Acrylamid was obtained from Merck®. • Acrylic acid was obtained from Merck®. • N,N-methylene-bis-acrylamide was obtained from Merck®. • NaOH was obtained from Aldrich®. • N,N,N′,N′-tetramethylethylenediamine was obtained from Aldrich®. • Dimethylaminopropyl-3-ethylcarbodiimide hydrochloride was obtained from Aldrich®. • N-hydroxysuccinimide was obtained from Aldrich®. • 2-(N-morpholino)-ethane sulfonic acid was obtained from Aldrich®. • MilliQ water: is water characterised in terms of resistivity (typically 18.2 MΩ·cm at 25° C.). • Low glucose Dulbecco's Modified Eagle Medium (DMEM) was obtained from Invitrogen® • Minimum Essential Medium Eagle without ascorbic acid (αMEM) was obtained from Invitrogen®. • All of the cell culture experiments were carried out without any serum in the medium for the first 8 hours of culture. • Osteoblast progenitors or precursor osteoblasts: MC3T3-E1 cells were obtained from ATCC®. These cells were cultured in Alpha-MEM medium supplemented with 10% fetal calf serum (FCS) and 1% penicillin/streptomycin. All cells were used at a low passage number (passage 7), were subconfluently cultured and were seeded at 10^4 cells/cm^2 for the purpose of the experiments. • Human bone marrow Mesenchymal Stem Cells (hMSCs) were obtained from Lonza®. These cells were cultured in Alpha-MEM supplemented with 10% (v/v) FBS and 1% penicillin/streptomycin and incubated in a humidified atmosphere containing 5% (v/v) CO2 at 37° C. All cells were used at a low passage number (passage 2 to 4), were subconfluently cultured and were seeded at 10^4 cells/cm^2 for the purpose of the experiments. • Human adipose Mesenchymal Stem Cells (haMSCs) were obtained from Lonza®. These cells were cultured in Alpha-MEM supplemented with 10% (v/v) FBS and 1% penicillin/streptomycin and incubated in a humidified atmosphere containing 5% (v/v) CO2 at 37° C. All cells were used at a low passage number (passage 3 to 4), were subconfluently cultured and were seeded at 10^4 cells/cm^2 for the purpose of the experiments. • Mouse Hair Follicle Stem Cells were isolated and cultured as described in Methods Mol Biol. 2010; 585:401-20. • Neuron cells are Neuronal Schwann Cells obtained from ATCC®. These cells were cultured in Dulbecco's Modified Eagle's Medium supplemented with 10% (v/v) FBS and 1% penicillin/streptomycin and incubated in a humidified atmosphere containing 5% (v/v) CO2 at 37° C. All cells were used at a low passage number (passage 6-8), were subconfluently cultured and were seeded at 10^4 cells/cm^2 for the purpose of the experiments. • Human umbilical-vein endothelial cells (HUVECs) were purchased from Promocell®. HUVECs were isolated and grown on gelatin coated culture flasks in a complete HUVEC culture medium (IMDM (Invitrogen, France) supplemented with 20% (v/v) fetal bovine serum (FBS) (PAA, France) and 0.4% (v/v) EC growth supplement/heparin kit (Promocell, France)). Cells were subcultured by using trypsin/EDTA (Invitrogen, France) and maintained in a humidified atmosphere containing 5% CO2 at 37° C. These cells were used at a passage number 3 to 5 for the purpose of the experiments. […]

Experiment [2] deals with Human Hematopoietic Stem Cells. Put plainly: Differentiation of human hematopoietic stem cells: loss of stemness marker CD-34+ (immunostaining). The experiment is classed as cell-based. The settings on record: compound in cell media solution, 400 ng/mL, 48 hours.

No end group written: not given here.

For “APTGGSATSMLYYDKGVVTYLRKHRGGVVKDKGVVTY (also: cyclic, ring type not given here) [SEQ ID NO: 717]”, in experiment [1], the “STRO-1 Expression (%) after 96 h” value was found to be 17% and the “STRO-1 Expression (%) after 48 h” value is reported as 28%.

As for “APTLLNAISMLYFNDKQQIILKKYRLLVVRNDKQQII (also: cyclic, ring type not given here) [SEQ ID NO: 716]”, in experiment [1], the “STRO-1 Expression (%) after 96 h” value was found to be 20% and the “STRO-1 Expression (%) after 48 h” value was 30%. Taken in the same sequence, the figures for “APVAAKPLSMLYVDKGVVTYDHHKDAAVEEDEYDKVV (also: cyclic, ring type not given here) [SEQ ID NO: 722]” were 18% and 31%. For “APVKMEPLPTVYYDDMGVPTEQLSNDMVEESGSLDDMGVPT (also: cyclic, ring type not given here) [SEQ ID NO: 746]”, in experiment [2], the “CD34+ Expression (%)” value is recorded as 37%. For the substance “ASASPSSAPVDLKPLSMLYVIGKTPKIDHHKDMIVEESKSIGKTPKID (also: cyclic, ring type not given here) [SEQ ID NO: 734]”, the “STRO-1 Expression (%) after 48 h” value in experiment [1] is listed as 33%. As to “ASASPSSVSQDLRSVKVAKVIGKTPKIKEVQVMIVKSSKIGKTPKID (also: cyclic, ring type not given here) [SEQ ID NO: 738]”, the “STRO-1 Expression (%) after 48 h” value in experiment [1] was 31%. On the same count and under the same terms, in the case of “AVPKASSVPQKLEPLTILYYDSSNNVIEQLSNNMVKSIGKTPKID (also: cyclic, ring type not given here) [SEQ ID NO: 736]” it was 37%. “EPSSSRVRLEPLTTLYYGGGGGGGEQLSNVVEEHSKDKGVVTY (also: cyclic, ring type not given here) [SEQ ID NO: 745]”: the “CD34+ Expression (%)” value in experiment [2] was determined as 37%.

As for “EPSSVSQAAEPLPIVYYRIKPHOGQHEQLSNMIVKSSKSSDDMGVPT [SEQ ID NO: 747]”, the “CD34+ Expression (%)” value in experiment [2] is listed as 38%. With “HVTKPTSVPTKLSPISILFIDDSSNVIYKQYENMVVESSGSHIGKTPKID (also: cyclic, ring type not given here) [SEQ ID NO: 733]”, in experiment [1], the “STRO-1 Expression (%) after 48 h” value was determined as 23%. “IPKASSAPVGQRPVQMRKIDKGVVTYKKATVSSVEESGSLDKGVVTY (also: cyclic, ring type not given here) [SEQ ID NO: 739]”: the “CD34+ Expression (%)” value in experiment [2] stood at 35%.

“KASSSRVKMSNITVQ1MRIKPHOGQHIGEMSVVEEHASGSHDKGVVTY (KASSSRVKMSNITVQIMRIKPHQGQHIGEMSVVEEHASGSHDKGVVTY; not fully specified (residue 23); printed as KASSSRVKMSNITVQ1MRIKPHOGQHIGEMSVVEEHASGSHDKGVVTY; also: cyclic, ring type not given here) [SEQ ID NO: 743]”: the “CD34+ Expression (%)” value in experiment [2] worked out at 42%. The same measure, in the same setting: in the case of “KASSVPQEERPVQMRKIGGGGGGGKKATVMIVRSSKSSDDMGVPT (also: cyclic, ring type not given here) [SEQ ID NO: 740]” it was 31%. “KIPKASSVPQELEPLPIVYYDENEKVVEQLSNDMVRSGSGSRDENEKV (also: cyclic, ring type not given here) [SEQ ID NO: 735]”: the “STRO-1 Expression (%) after 48 h” value in experiment [1] came out at 26%. Take “NDEGLESVPTGQSPISILYIRIKPHQGQHYKQYELEEHSQSESRDENEKV (also: cyclic, ring type not given here) [SEQ ID NO: 732]”: the “STRO-1 Expression (%) after 48 h” value in experiment [1] was 27%. Still for that read-out and setting: in the case of “RVPSTSSAPVKTSNITMQIMDNGRVLLLGEMSMIVEESGSLIGKTPKID (also: cyclic, ring type not given here) [SEQ ID NO: 737]” it was 28%. On to “SRVAARSVKMAKVGGGGGGGKEVQVAAEEHGGGGGG (also: cyclic, ring not given here) [SEQ ID NO: 726]”, for which, in experiment [1], the “STRO-1 Expression (%) after 96 h” value came out at 21% and the “STRO-1 Expression (%) after 48 h” value is recorded as 39%. “SRVLLRPVQMRKIDKGVVTYKKATVLLEEHDKGVVTY (also: cyclic, ring not given here) [SEQ ID NO: 729]”: in experiment [1], the “STRO-1 Expression (%) after 96 h” value came to 14% and the “STRO-1 Expression (%) after 48 h” value is 37%.

On to “TPTSSSPINTLYFDDMGVPTYGKIPSSVVDDEYDKVV (also: cyclic, ring not given here) [SEQ ID NO: 720]”, for which, in experiment [1], the “STRO-1 Expression (%) after 96 h” value is 14% and the “STRO-1 Expression (%) after 48 h” value is listed as 21%.

As to “TQVAARPVQTRKIDDMGVPTKKATVAAEDHDKGVVTY (also: cyclic, ring not given here) [SEQ ID NO: 730]”, in experiment [1], the “STRO-1 Expression (%) after 96 h” value is 21% and the “STRO-1 Expression (%) after 48 h” value is 36%. As to “VPEAASSLSMLFFEIVRKKPIFLKVYPAATVEDKGVVTY (also: cyclic, ring not given here) [SEQ ID NO: 714]”, in experiment [1], the “STRO-1 Expression (%) after 96 h” value came out at 18% and the “STRO-1 Expression (%) after 48 h” value stood at 28%. Taken in the same sequence, the figures for “VPQAAEPLPMLYYDKGVVTYEQLSNAAVRSDKGVVTY (also: cyclic, ring not given here) [SEQ ID NO: 723]” were 20% and 34%. Taken in the same sequence, the figures for “VPQQQEPLTTLYYDEYDKVVEQLSNQQVKSNDKQQII (also: cyclic, ring not given here) [SEQ ID NO: 724]” were 16% and 29%. With “VPQRLEPLTILYYDAANNVVEQLSNDMVKSDENEKV (also: cyclic, ring not given here) [SEQ ID NO: 731]”, the “STRO-1 Expression (%) after 48 h” value in experiment [1] worked out at 31%. Consider “VPTAAEPISMLYLDEYDKVVKFKYEAAAVSNDKQQII (also: cyclic, ring not given here) [SEQ ID NO: 719]”, for which, in experiment [1], the “STRO-1 Expression (%) after 96 h” value was found to be 16% and the “STRO-1 Expression (%) after 48 h” value is on record as 26%. With “VPTAASAISILYLDAANNVVLKNYQAAVVEDKGVVTY (also: cyclic, ring not given here) [SEQ ID NO: 713]”, in experiment [1], the “STRO-1 Expression (%) after 96 h” value came to 23% and the “STRO-1 Expression (%) after 48 h” value turned out to be 29%. The matching figures for “VPTDDSATSTLYYDKGVVTYLRKHRDDEHSDKGVVTY (also: cyclic, ring not given here) [SEQ ID NO: 727]”: 13% and 26%. As to “VPTGGEPLTTLYYNDKQQIIEQLSNGGEHSDDMGVPT (also: cyclic, ring not given here) [SEQ ID NO: 728]”, in experiment [1], the “STRO-1 Expression (%) after 96 h” value is recorded as 17% and the “STRO-1 Expression (%) after 48 h” value was determined as 32%.

Take “VPTMMSNITTQIMRIKPHQGQHIGEMSMMQHNDEYDKVV (also: cyclic, ring not given here) [SEQ ID NO: 725]”: in experiment [1], the “STRO-1 Expression (%) after 96 h” value was 20% and the “STRO-1 Expression (%) after 48 h” value turned out to be 35%. Taken in the same sequence, the figures for “VPTSSSPISTLYIDKGVVTYLKYHYSSVAEDEYDKVV (also: cyclic, ring not given here) [SEQ ID NO: 718]” were 19% and 26%. Consider “VPTVVSAISTLYLRIKPHQGQHLKNYQVVVVENDKQQII (also: cyclic, ring not given here) [SEQ ID NO: 715]”, for which, in experiment [1], the “STRO-1 Expression (%) after 96 h” value is recorded as 24% and the “STRO-1 Expression (%) after 48 h” value was determined as 31%. The matching figures for “VPTVVSPISMLYIDDMGVPTYKQYEVVVVEDDMGVPT (also: cyclic, ring not given here) [SEQ ID NO: 721]”: 16% and 29%.

The record behind these values is US20180305408A1, “COMPOUNDS FOR INDUCING TISSUE FORMATION AND USES THEREOF” (HISTIDE AG, priority 2015, published 2018).
